According to ChEMBL document CHEMBL1135302, “Optimization of the 4-aryl group of 4-aryl-pyridine glucagon antagonists: development of an efficient, alternative synthesis” (Bioorg Med Chem Lett, 2002):

What follows are compounds tested against T1, Glucagon receptor (Homo sapiens, UniProt P47871) (assay: Percentage inhibition of human glucagon receptor function expressed in CHO cells at a concentration of 20 uM.).
Assay type: cell-based

T1 sequence (P47871 whole entry): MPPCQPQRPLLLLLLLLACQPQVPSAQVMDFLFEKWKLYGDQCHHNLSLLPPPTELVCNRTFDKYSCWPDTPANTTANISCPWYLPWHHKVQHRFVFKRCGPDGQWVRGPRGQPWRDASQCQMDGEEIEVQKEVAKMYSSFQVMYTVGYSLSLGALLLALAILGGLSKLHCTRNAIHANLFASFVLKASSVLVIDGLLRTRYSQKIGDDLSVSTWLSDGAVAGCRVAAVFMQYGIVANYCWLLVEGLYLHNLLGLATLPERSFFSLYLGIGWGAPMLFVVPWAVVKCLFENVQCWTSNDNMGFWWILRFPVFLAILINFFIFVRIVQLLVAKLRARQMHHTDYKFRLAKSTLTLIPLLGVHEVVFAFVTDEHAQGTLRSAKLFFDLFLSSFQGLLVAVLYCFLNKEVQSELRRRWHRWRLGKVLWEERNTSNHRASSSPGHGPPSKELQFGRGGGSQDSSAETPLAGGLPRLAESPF

inhibition [%] | Structure (SMILES)
46 | CCCCCc1c(C(C)C)nc(C(C)C)c(CO)c1-c1cccc(C)c1
39 | CCC/C=C/c1c(C(C)C)nc(C(C)C)c(CO)c1-c1ccc(Cl)c(Cl)c1
33 | CCCCCc1c(C(C)C)nc(C(C)C)c(CO)c1-c1ccccc1C
2 | CCCCCc1c(C(C)C)nc(C(C)C)c(CO)c1-c1ccc(-c2ccccc2)cc1
37 | CCCCCc1c(C(C)C)nc(C(C)C)c(CO)c1-c1ccc(OC)cc1
34 | CCCCCc1c(C(C)C)nc(C(C)C)c(CO)c1-c1ccc(C(C)C)cc1
13 | CCCCCc1c(C(C)C)nc(C(C)C)c(CO)c1-c1ccccc1NC(C)=O
35 | CCCCCc1c(C(C)C)nc(C(C)C)c(CO)c1-c1ccc(C(F)(F)F)cc1
8 | CCCCCc1c(C(C)C)nc(C(C)C)c(CO)c1-c1ccc(Cl)cc1Cl
44 | CCCCCc1c(C(C)C)nc(C(C)C)c(CO)c1-c1ccccc1CO
14 | CCC/C=C/c1c(C(C)C)nc(C(C)C)c(CO)c1-c1ccc(S(C)(=O)=O)cc1
6 | CCCCCc1c(C(C)C)nc(C(C)C)c(CO)c1-c1cccc2ccccc12
16 | CCCCCc1c(C(C)C)nc(C(C)C)c(CO)c1-c1ccc2ccccc2c1
11 | CCCCCc1c(C(C)C)nc(C(C)C)c(C)c1-c1ccccc1O
37 | CCCCCc1c(C(C)C)nc(C(C)C)c(CO)c1-c1ccc2c(c1)CCCC2
27 | CCCCCc1c(C(C)C)nc(C(C)C)c(CO)c1-c1ccccc1OC
49 | CCCCCc1c(C(C)C)nc(C(C)C)c(CO)c1-c1cccc(Cl)c1
25 | CCCCCc1c(C(C)C)nc(C(C)C)c(CO)c1-c1cccc(C(F)(F)F)c1
24 | CCCCCc1c(C(C)C)nc(C(C)C)c(CO)c1-c1ccc(O)cc1
42 | CCCCCc1c(C(C)C)nc(C(C)C)c(CO)c1-c1ccc(CC)cc1

Each compound was assayed against T1, Glucagon receptor (assay: Tested for its ability to inhibit cAMP production in human glucagon receptor expressed CHO cells).
Assay type: functional, cell-based

IC50 [µM] | Structure (SMILES)
0.12 | CCCCCc1c(C(C)C)nc(C(C)C)c(CO)c1-c1ccc(F)cc1O
0.4 | CCCCCc1c(C(C)C)nc(C(C)C)c(CO)c1-c1ccc(F)cc1

The compounds below were run against T1, Glucagon receptor (assay: biochemical).
Description: Tested for its inhibitory activity against human glucagon receptor (hGR) expressed in CHO cells

IC50 [µM] | Structure (SMILES)
48 | CCCCCc1c(C(C)C)nc(C(C)C)c(CO)c1-c1cccc(OC)c1
7 | CC(C)=Cc1c(C(C)C)nc(C(C)C)c(O)c1-c1ccc(F)cc1
0.19 | CCCCCc1c(C(C)C)nc(C(C)C)c(CO)c1-c1ccc(F)cc1O
2.3 | CCCCCc1c(C(C)C)nc(C(C)C)c(CO)c1-c1ccccc1N
11 | CCCCCc1c(C(C)C)nc(C(C)C)c(CO)c1-c1ccc(F)cc1F
19 | CCCCCc1c(C(C)C)nc(C(C)C)c(CO)c1-c1ccc(F)c(CO)c1
